Here are results for four molecules from paper PMC3852005, “Crystal Structures of the Human G3BP1 NTF2-Like Domain Visualize FxFG Nup Repeat Specificity” (PLoS ONE, 2013).

Where no end group is shown, it is not given here.

What is called Kd is the free concentration of one partner at which half of the binding sites on the other are occupied at equilibrium, for simple one-to-one binding.

Assay [1] deals with T1, human G3BP1 NTF2-like domain (G3BP1 1–139) (Homo sapiens, UniProt Q13283).
T1 construct: His6 (thrombin-cleavable) (N, cleaved yes); made in house; host or cells: Escherichia coli BL21(DE3)
T1 sequence (Q13283 1-139): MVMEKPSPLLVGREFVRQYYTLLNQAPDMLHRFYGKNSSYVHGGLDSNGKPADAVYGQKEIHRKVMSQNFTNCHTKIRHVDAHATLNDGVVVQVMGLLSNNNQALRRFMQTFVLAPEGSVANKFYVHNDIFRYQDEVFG
The assay can be described thus: ITC, Nup peptide binding to G3BP1 NTF2-like domain (1–139). The conditions noted are these: 0.1 M NaCl and 0.1 M HEPES, pH 8, 25°C, repeated three times; for heat changes on titration (ITC): titration of peptide into G3BP1 1–139, ITC200, aliquots of 2 µL peptide (5.2 mM). As for the experimental part: (§1) The three synthetic peptides, GQSPGFGQGGSV (referred to as FG), DSGGLFGSK (GLFG) and DSGFSFGSK (FxFG), were obtained as more than 98% pure lyophilized chloride salts from Caslo Laboratory ApS, Denmark.
(§2) ITC measurements for the wild type NTF2-like domain were performed with an ITC200 titration calorimeter (MicroCal). Data analysis was done using the Origin software. Protein samples were dialyzed against 0.1 M NaCl and 0.1 M HEPES, pH 8, and passed through 0.22 µm centrifugal filter units (Millipore) before the experiments. Peptides were solubilized in the dialysis buffer and the pH adjusted before filtration. In each experiment, aliquots of 2 µL peptide (5.2 mM) were injected into the sample cell every 180 seconds at 25°C. Background measurements were performed with buffer injected into the protein solution and peptides injected into the buffer solution. The concentrations of the peptides were determined by amino acid analysis (Department of Systems Biology, DTU, Denmark). Experiments were repeated three times and the results given as mean ± standard deviation.
On the technique in general: ITC needs no label: the signal is the heat of the interaction.

The target in assay [2] is T2, G3BP1 1–139 Phe15Ala mutant (Homo sapiens, UniProt Q13283, F15A).
T2 construct: The expression vector for the G3BP1 1–139 Phe15Ala mutant was produced by GenScript Inc. (USA); His6 (thrombin-cleavable) (N, cleaved yes); made in house; host or cells: Escherichia coli BL21(DE3)
T2 sequence (Q13283 1-139 F15A): as the sequence (Q13283 1-139) above, with F15A counted along it
Put plainly: ITC, FxFG peptide binding to G3BP1 1–139 Phe15Ala mutant. The conditions noted are these: ITC (VP-ITC), 0.1 M NaCl and 0.1 M HEPES, pH 8, 20°C, aliquots of 15 µL peptide (4.1 mM) every 360 seconds, single experiment. As for the experimental part:
as §1
Data for the Phe15Ala G3BP1 mutant were collected in a single experiment on a VP-ITC (MicroCal) instrument using buffer conditions as for the wildtype. Aliquots of 15 µL peptide (4.1 mM) were injected into the protein sample every 360 seconds at 20°C.

In assay [3] the target is T3, G3BP2a NTF2-like domain (G3BP2a 1–139) (Homo sapiens, UniProt Q9UN86).
T3 construct: His6 (thrombin-cleavable) (N, cleaved yes); made in house; host or cells: Escherichia coli BL21(DE3)
T3 sequence (Q9UN86 1-139): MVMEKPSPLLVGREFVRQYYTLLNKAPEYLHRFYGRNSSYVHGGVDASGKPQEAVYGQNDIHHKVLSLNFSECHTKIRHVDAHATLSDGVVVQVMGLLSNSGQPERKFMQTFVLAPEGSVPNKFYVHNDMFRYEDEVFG
Put plainly: ITC, Nup peptide binding to G3BP2a NTF2-like domain (1–139). The conditions noted are these: 0.1 M NaCl and 0.1 M HEPES, pH 8, 25°C, repeated three times; for heat changes on titration (ITC): titration of peptide into G3BP2a 1–139 (data not shown), ITC200, aliquots of 2 µL peptide (5.2 mM). How it is done: as §1, §2

A further assay deals with T4, FxFG Nup repeat peptide (also: chloride salt).
T4 chain: DSGFSFGSK
Put plainly: ITC.

Consider DSGFSFGSK [FxFG, DSGFSFGSK], for which the Kd amounted to 115 ± 3 µM in assay [1] (ITC (ITC200), G3BP1 1–139, aliquots of 2 µL peptide (5.2 mM) every 180 seconds, one-binding-site per chain model, mean ± standard deviation); 670 µM in assay [2]; 114 ± 2 µM in assay [3] (ITC (ITC200), G3BP2a NTF2-like domain, aliquots of 2 µL peptide (5.2 mM) every 180 seconds, mean ± standard deviation, data not shown).

As to “GQSPGFGQGGSV [synthetic nucleoporin FG repeat peptide, more than 98% pure, from Caslo Laboratory]”, the “heat changes on titration (ITC)” value in assay [1] and in assay [3] was “did not result in significant heat changes” each time.

“DSGGLFGSK [synthetic nucleoporin GLFG repeat peptide, more than 98% pure, from Caslo Laboratory]”: the “heat changes on titration (ITC)” value in assay [1] and in assay [3] was “did not result in significant heat changes” throughout.

B1: G3BP2a NTF2-like domain 1-139 (protein)
chain: MVMEKPSPLLVGREFVRQYYTLLNKAPEYLHRFYGRNSSYVHGGVDASGKPQEAVYGQNDIHHKVLSLNFSECHTKIRHVDAHATLSDGVVVQVMGLLSNSGQPERKFMQTFVLAPEGSVPNKFYVHNDMFRYEDEVFG
Consider B1, for which, in the assay with FxFG Nup repeat peptide, the Kd was 114 µM.
